# Data reported in the PolyMetriX glass transition set.
# ± gives the standard deviation of the reports.
row,SMILES,glass transition temperature [°C]
1,*OS(=O)(=O)c1cc(S(=O)(=O)Oc2ccc(C3(c4ccc(*)cc4)CCCC3)cc2)ccc1C (repeat unit),134.00
2,*OC(=O)c1ccc(CCCCCCc2ccc(C(*)=O)cc2)cc1 (repeat unit),20.00
3,*COC(=O)NCc1ccc(CNC(=O)OCc2ccc(*)o2)o1 (repeat unit),75.00
4,*CC(*)OC(=O)c1cccc([N+](=O)[O-])c1 (repeat unit),93.00
5,*CCCNC(=O)c1ccc(C(=O)N*)cc1 (repeat unit),180.00
6,*O[Si](*)(c1ccccc1)c1ccc(OC(C)(C)C)cc1 (repeat unit),56.00
7,*OC(CC(*)=O)C(Cl)(Cl)Cl (repeat unit),163.50
8,*Oc1c(C)cc(C(C)(C)c2cc(C)c(OC(*)=O)c(C)c2)cc1C (repeat unit),193.00
9,*O[Si](C)(CCC(F)(F)F)CCC(F)(F)C(F)(F)C(F)(F)C(F)(F)C(F)(F)C(F)(F)C(F)(F)C(F)(F)CC[Si](*)(C)CCC(F)(F)F (repeat unit),-28.00
10,*CC(*)(C)C(=O)OCCCOc1ccc2cc(C(=O)Oc3ccccc3)ccc2c1 (repeat unit),84.00
11,*Nc1ccc(C(c2ccc(NC(=O)c3ccc(C(*)=O)cc3)cc2)(P2(=O)Oc3ccccc3-c3ccccc32)P2(=O)Oc3ccccc3-c3ccccc32)cc1 (repeat unit),245.00
12,*C(=O)OCCOC(=O)c1ccc(C(=O)OCCOC(=O)N2CCN(*)CC2)cc1 (repeat unit),53.00
13,*c1ccc(-c2ccc(-c3ccc([Si](C)(C)[Si](*)(C)C)s3)s2)s1 (repeat unit),45.00
14,*CC(*)(C)C(=O)OCCCCCCOc1ccc(OC(=O)c2ccc(OCCCCCCCC)cc2)cc1 (repeat unit),-1.00
15,*CC1CCC(CNC(=O)CCCCCCCCCCC(=O)N*)CC1 (repeat unit),85.00
16,*CCOC(=O)c1cccc2c(C(=O)O*)cccc12 (repeat unit),78.00
17,*CCOP(=O)(/N=N/c1ccc(-c2ccc(/N=N/P(=O)(O*)OCC)cc2)cc1)OCC (repeat unit),43.00
18,*OP(=O)(Oc1ccccc1)Oc1c(Br)cc(C(c2cc(Br)c(*)c(Br)c2)(C(F)(F)F)C(F)(F)F)cc1Br (repeat unit),140.00
19,*CC(*)c1ccc(COCCC(F)(F)C(F)(F)C(F)(F)C(F)(F)F)cc1 (repeat unit),13.00
20,*c1ccc(-c2nc3cc4sc(*)nc4cc3s2)cc1 (repeat unit),25.00

row,SMILES,glass transition temperature [°C]
1,*Sc1ccc(Cc2ccc(SC(*)=O)cc2)cc1 (repeat unit),117.00
2,*Oc1ccc(/C=C2\CCC/C(=C\c3ccc(OC(=O)c4cccc(C(*)=O)c4)c(OC)c3)C2=O)cc1OC (repeat unit),57.86
3,*/C(C)=C(/*)CCCCC (repeat unit),180.00
4,*Oc1ccc(CC(NC(=O)CCc2ccc(OC(=O)COCCOCC(*)=O)cc2)C(=O)OCCCCCCCC)cc1 (repeat unit),16.00
5,*CC(c1ccccc1)C1C(=O)N(c2ccc(C(C)(C)C)cc2)C(=O)C1* (repeat unit),237.00
6,*c1cccc(N2C(=O)C(=O)N(CCCCCCN3C(=O)C(=O)N(*)C3=O)C2=O)n1 (repeat unit),169.50
7,*CC(C)(COC(=O)O*)C(=O)OCc1ccccc1 (repeat unit),-2.00
8,*Nc1ccc(NC(=O)CCCC(*)=O)cc1 (repeat unit),135.00
9,*CC(*)c1ccc(OCCC)cc1 (repeat unit) [Poly(p-n-propoxy styrene)],70 ± 3.5
10,*CCN(CCOC(=O)NC(C)(C)c1cccc(C(C)(C)NC(=O)O*)c1)c1ccc(/N=N/c2ccc([N+](=O)[O-])cc2)cc1 (repeat unit),103.00
11,*/C=C/c1cccc(/C=C/[Si](C)(C)c2ccc([Si](*)(C)C)cc2)c1 (repeat unit),38.10
12,*COC(=O)c1ccc(/C(C#N)=C(\c2ccc(OC)cc2)N2CCCC(*)C2)cc1 (repeat unit),176.00
13,*CC(*)(Cl)C(=O)OCCCCCCOc1ccc(C(=O)Oc2ccc(OCCCC)cc2)cc1 (repeat unit),112.50
14,*Cc1cccc(CNC(=O)CCC2(CCC(=O)N*)c3ccccc3-c3ccccc32)c1 (repeat unit),150.00
15,*CCCCCCC(=O)Oc1ccc(OC(=O)c2ccc3c(c2)C(=O)N(*)C3=O)cc1 (repeat unit),74.31
16,"*Oc1ccc(C(CCC)c2ccc(OC(*)=O)cc2)cc1 (repeat unit) [Poly[1,1-butane bis(4-phenyl)carbonate] ]",123 ± 0.6
17,*OC(*)CCCCCC (repeat unit),-116.00
18,*CC(*)c1ccc(C(=O)OCCCC)cc1 (repeat unit),76.00
19,*OP(=O)(Oc1ccc(C(C)(C)c2ccc(*)cc2)cc1)OC1CCCCC1 (repeat unit),86.00

# Continued, values first:
row,glass transition temperature [°C],SMILES
1,295.00,*Oc1ccc(C(C)(C)c2ccc(OC(=O)c3ccc([Si](c4ccccc4)(c4ccccc4)c4ccc(C(*)=O)cc4)cc3)cc2)cc1 (repeat unit)
2,180.00,*CCCCCCCCCCc1ccc(-c2c(-c3ccccc3)cc(-c3cccc(-c4cc(-c5ccccc5)c(-c5ccc(*)cc5)c(-c5ccccc5)c4-c4ccccc4)c3)c(-c3ccccc3)c2-c2ccccc2)cc1 (repeat unit)
3,198.00,*c1ccc(Oc2ccc(Oc3ccc(-c4ccc(Oc5ccc(Oc6ccc(C7(*)OC(=O)c8ccccc87)cc6)cc5)c5ccccc45)c4ccccc34)cc2)cc1 (repeat unit)
4,232.00,*Oc1ccc(Oc2ccc(C(=O)Nc3ccc(Oc4ccc(-c5ccc(Oc6ccc(NC(=O)c7ccc(*)cc7)cc6)cc5)cc4)cc3)cc2)cc1-c1ccccc1 (repeat unit)
5,208.00,*c1ccc(Oc2ccc(-c3ccc(Oc4ccc(N5C(=O)c6ccc(Oc7ccccc7Oc7ccc8c(c7)C(=O)N(*)C8=O)cc6C5=O)cc4C(F)(F)F)cc3)cc2)c(C(F)(F)F)c1 (repeat unit)
6,243.00,*c1ccc(-c2cc(-c3ccc(-c4ccccc4)cc3)cc(-c3ccc(N4C(=O)c5ccc(NC(=O)Nc6ccc(NC(=O)Nc7ccc8c(c7)C(=O)N(*)C8=O)cc6)cc5C4=O)cc3)n2)cc1 (repeat unit)
7,125.00,*c1ccc(NC(=O)c2ccc(OCCOCCOCCOCCOCCOc3ccc(C(=O)Nc4ccc5[nH]c(*)nc5c4)cc3)cc2)cc1 (repeat unit)
8,260.00,*C(=S)Nc1ccc(Oc2ccc(NC(=S)N3C(=O)c4ccc(C(c5ccc6c(c5)C(=O)N(*)C6=O)(C(F)(F)F)C(F)(F)F)cc4C3=O)cc2)cc1 (repeat unit)
9,195.00,*/C=C(\C#N)C(=O)NC1CCCCC1NC(=O)/C(C#N)=C/c1ccc(/C=C/c2ccc(N(CC)Cc3ccccc3CN(CC)c3ccc(/C=C/c4ccc(*)s4)cc3)cc2)s1 (repeat unit)
10,269.50,*Oc1ccc(C2(c3ccc(OC(=O)c4cccc(C(*)=O)c4)cc3)c3ccccc3-c3ccccc32)cc1 (repeat unit)
11,81.00,*O[Si](C)(C)COC(=O)CCCCCCCCC(=O)Oc1ccc(S(=O)(=O)c2ccc(Oc3ccc(/C=C4\CCCC/C(=C\c5ccc(Oc6ccc(S(=O)(=O)c7ccc(OC(=O)CCCCCCCCC(=O)OC[Si](*)(C)C)cc7)cc6)cc5)C4=O)cc3)cc2)cc1 (repeat unit)
12,322.00,*C(=O)Nc1ccc(Oc2ccc(C3(c4ccc(Oc5ccc(NC(=O)c6ccc7c(c6)C(=O)N(c6ccc(N8C(=O)c9ccc(*)cc9C8=O)cc6)C7=O)cc5)cc4)NC(=O)c4ccccc43)cc2)cc1 (repeat unit)
13,256.50,*c1ccc(Oc2ccc(C(=O)c3cccc(C(=O)c4ccc(Oc5ccc(-c6nc(-c7cccc(-c8nc(*)c(-c9ccccc9)[nH]8)c7)[nH]c6-c6ccccc6)cc5)cc4)c3)cc2)cc1 (repeat unit)
14,288.00,*C(=O)c1ccc2c(c1)C(=O)N(c1ccc(Oc3cc(C(C)(C)C)c(Oc4ccc(N5C(=O)c6ccc(*)cc6C5=O)cc4)cc3C(C)(C)C)cc1)C2=O (repeat unit)
15,108.00,*c1cc(Br)c(-c2c(Br)cc(N3C(=O)c4ccc(-c5ccc6c(c5)C(=O)N(*)C6=O)cc4C3=O)cc2C(=O)OCCCCCCCCCCCC)c(C(=O)OCCCCCCCCCCCC)c1 (repeat unit)
16,358.00,*C(=O)Nc1cccc(NC(=O)c2ccc3c(c2)C(=O)N(c2cc(-c4nc5ccccc5s4)cc(N4C(=O)c5ccc(*)cc5C4=O)c2)C3=O)n1 (repeat unit)
17,254.00,*Oc1ccc(C(c2ccccc2)(c2ccccc2)c2ccc(Oc3ccc(C(=O)Nc4ccc(NC(=O)c5ccc(*)cc5)cc4)cc3)cc2)cc1 (repeat unit)
18,290.50 ± 9.2,*c1ccc2c(c1)C(=O)N(c1cc(N3C(=O)c4ccc(C(*)(C(F)(F)F)C(F)(F)F)cc4C3=O)cc(C(F)(F)F)c1)C2=O (repeat unit)
19,157.00,*c1cccc(C(F)(F)C(F)(F)C(F)(F)C(F)(F)C(F)(F)c2cccc(N3C(=O)c4ccc(Oc5ccc6c(c5)C(=O)N(*)C6=O)cc4C3=O)c2)c1 (repeat unit)
20,250.00,*C1CCC(CC2CCC(N3C(=O)c4ccc(Oc5ccc6c(c5)C(=O)N(*)C6=O)cc4C3=O)C(C)C2)CC1C (repeat unit)
21,227.00,*C(=O)Nc1ccc(Oc2ccccc2-c2ccccc2Oc2ccc(NC(=O)c3ccc4c(c3)C(=O)N(c3ccc(Oc5ccccc5-c5ccccc5Oc5ccc(N6C(=O)c7ccc(*)cc7C6=O)cc5)cc3)C4=O)cc2)cc1 (repeat unit)
22,176.40,*Oc1cccc(Oc2cccc(NC(=O)c3cc(Oc4ccc(C(=O)O)c(C(=O)Nc5cccc(*)c5)c4)ccc3C(=O)O)c2)c1 (repeat unit)
23,266.00,*Oc1ccc(NC(=O)c2ccc3cc(C(=O)Nc4ccc(Oc5ccc(C6(c7ccc(*)cc7)C7CC8CC(C7)CC6C8)cc5)cc4)ccc3c2)cc1 (repeat unit)
